Columns and labels:
[1] = test system: callus vasculature of grafted femurs; assay: Callus vascularization by micro-CT after vascular perfusion (Example 4); assay type: in vivo, mice; conditions: for vessel volume within callus, more in saline treated than PTH treated specimens: not significant, n=4 per group
Procedure: A second cohort of 16 animals underwent the same surgery with sacrifice of 8 animals at 4 weeks and 8 animals at 6 weeks post-surgery to evaluate the degree of vascularization of the graft and callus region using vascular profusion as described previously (Duvall 2004). Half of the animals were treated with PTH, and the other half with saline.
On the day of sacrifice, animals were injected with a fatal dose of ketamine and xylazine and their vasculature was perfused using a syringe pump through a needle placed into the left ventricle of the heart. The right atrium was also punctured to allow the blood to drain out. They were first perfused with heparinized (100 units/ml) saline to prevent blood clotting, followed by 10% neutral-buffered formalin, and lastly with lead-chromate contrast agent (Microfil 122, Flow Tech, Inc. Carver, Mass.). Samples were fixed in 10% formalin overnight followed by harvest of the femur and pin extraction. Samples were micro-CT scanned once after fixation, and again after EDTA decalcification. Using both scans the vasculature was evaluated within the mineralized callus. The vessel volume, thickness, spacing and vessel number was determined.

grafted femurs = assay: Torsion testing of grafted femurs (Example 4); assay type: in vivo, mice
Procedure: (§1) Four-mm long bone allografts were harvested from donor mice, and were processed and implanted into intecalary defects 195 in the femur of other mice and secured in place using a stainless steel intramedullary pin 190, as shown in FIG. 13. One week after surgery, daily injections of 40 μg/kg hrPTH (1-34) (Lilly, Inc., Indianapolis, Ind.) were initiated in half of the mice, while the others received injections of saline control. Weekly x-rays were taken to monitor progression (Faxitron X-Ray LLC, Wheeling, Ill.).
(§2) One cohort of the study groups used 14 mice from each treatment (PTH and control) for imaging and mechanical material testing and were sacrificed 6 weeks after surgery. Each femur was harvested by disarticulating the hip and knee and removing the intramedullary stainless-steel pin. Specimens were moistened with saline and frozen at −20° C. until thawed for micro-CT imaging and torsion testing. Specimens were scanned at […] isotropic resolution using the Scanco VivaCT 40 (Scanco Medical AG, Bassersdorf, Switzerland). From these 3D images, the graft and callus bone volumes (BVGraft, BVCallus) were measured by manual segmentation, followed by standardized thresholding at a grayscale corresponding to 750 mgHA/cm^3. The cross-sectional polar moment of inertias (PMI) were computed for each slice throughout the grafted region and the maximum, minimum and average PMI (PMIMax, PMIMin, PMIAve) were investigated to determine their contribution to the biomechanics of the grafted femurs.
(§3) The Union Ratio was also calculated. The Union Ratio measures the graft surface area upon which mineralized callus has formed. If the voxels adjacent to the graft surface are boney callus, the area of that region of the graft is measured and normalized to the total graft surface area. Imaging data (not shown) indicated the bare surface of the graft in blue, with regions of union to the callus depicted as red. Each half (proximal and distal) of the graft was evaluated separately and the lesser ratio of union area to total graft surface area was given as the Union Ratio for that specimen. Callus formation that bridged from host-to-host over the graft was determined by evaluating serial axial cross sections from micro-CT images and given a binary result. These samples were then mechanically tested in torsion. Yield torque (TYield), ultimate torque (TUlt), torsional rigidity (TR), toughness (or work to failure) and the twist at ultimate torque were determined for each specimen. Finally, the mode of failure for each specimen was determined using an x-ray image analysis (not shown).

[2] = test system: intact contralateral femurs; assay: Micro-CT of intact contralateral femurs (Example 4); assay type: in vivo, mice; conditions: 6 weeks
[3] = test system: non-union tibial fracture; assay: Union Area from clinical CT of a patient with non-union tibial fracture; assay type: in vivo, human; conditions: one patient, after 4 months of teriparatide treatment
Description: We used our custom MATLAB software to contour the segment of bone on one side of the fracture site similarly to contouring around the murine graft. The surface area forming union to the other side of the fracture was then estimated by the software. […] FIG. 12 illustrates clinical x-rays of an anonymous patient's fractured tibia before and after 4 months of teriparatide therapy, 160 and 165, respectively and CT scan data of the patient before and after 4 months of teriparatide therapy, 170 and 175, respectively; and Union Area, shown in grey in 170 and 175, of the patient before and after 4 months of teriparatide therapy, 180 and 185, respectively. The effects of teriparatide on fracture healing were quantified as a 2.8 fold increase in Union Area.

[4] = test system: contralateral intact femurs; assay: Torsion testing of contralateral intact femurs (Example 4); assay type: in vivo, mice
Procedure: as §1, §2, §3

[5] = test system: critical 4 mm femoral defects; assay: PLA and PLA/βTCP scaffold reconstruction of critical 4 mm femoral defects, micro-CT and torsion (Example 2); assay type: in vivo, mouse
Description: (scale bars 25 in B & C represent 200 microns. Arrow head in panel C points to βTCP particles). Titanium pins 30 were passed through the lumen of the scaffolds 15 (panel D) to be used for fixation of the scaffolds when implanted as standalone femoral graft substitutes in critical 4 mm femoral defects in our previously established mouse model (see Example 1). The grafted animals were either treated with daily (5 days/week) injections of PTH or left untreated (Controls). […] When grafts were harvested at 9 weeks and following micro-CT imaging, scaffold-grafted femurs were tested in torsion at a rate of 1°/sec. […] The scaffold-grafted femurs were tested in torsion to determine their biomechanical properties, including maximum torque (panels A&B), torsional rigidity (panels C&D), and ultimate normalized rotation or twist (panels E&F). Panels A, C, and E show the average properties for both scaffold types in control and PTH treated animals. Panels B, D, and F show the maximum torque, torsional rigidity, and ultimate twist, respectively, of specimens that developed a bridging union compared to non-union control and PTH-treated specimens. Data are presented as mean+SEM. Asterisk indicates significant differences from control (p<0.05).

[6] = PTH Graft, 6 weeks after implantation, mean
[7] = PTH contralateral femur, mean, N = 8

## CC[C@H](C)[C@H](NC(=O)[C@H](CCC(=O)O)NC(=O)[C@H](CO)NC(=O)[C@@H](NC(=O)[C@@H](N)CO)C(C)C)C(=O)N[C@@H](CCC(N)=O)C(=O)N[C@@H](CC(C)C)C(=O)N[C@@H](CCSC)C(=O)N[C@@H](Cc1cnc[nH]1)C(=O)N[C@@H](CC(N)=O)C(=O)N[C@@H](CC(C)C)C(=O)NCC(=O)N[C@@H](CCCCN)C(=O)N[C@@H](Cc1cnc[nH]1)C(=O)N[C@@H](CC(C)C)C(=O)N[C@@H](CC(N)=O)C(=O)N[C@@H](CO)C(=O)N[C@@H](CCSC)C(=O)N[C@@H](CCC(=O)O)C(=O)N[C@@H](CCCN=C(N)N)C(=O)N[C@H](C(=O)N[C@@H](CCC(=O)O)C(=O)N[C@@H](Cc1c[nH]c2ccccc12)C(=O)N[C@@H](CC(C)C)C(=O)N[C@@H](CCCN=C(N)N)C(=O)N[C@@H](CCCCN)C(=O)N[C@@H](CCCCN)C(=O)N[C@@H](CC(C)C)C(=O)N[C@@H](CCC(N)=O)C(=O)N[C@@H](CC(=O)O)C(=O)N[C@H](C(=O)N[C@@H](Cc1cnc[nH]1)C(=O)N[C@@H](CC(N)=O)C(=O)N[C@@H](Cc1ccccc1)C(=O)O)C(C)C)C(C)C [PTH, PTH (1-34)]
[1]; 4 weeks
  vessel volume within callus, more in saline treated than PTH treated specimens: 74%
[1]; 4 weeks, p=0.05
  blood vessel diameter, greater in saline treated than PTH treated specimens: 55%
[1]; 6 weeks
  blood vessel diameter, greater in saline treated than PTH treated specimens: 78%
  vessel volume within callus, more in saline treated than PTH treated specimens: 88%
[1]; by 6 weeks, saline 3 of 4
  specimens in which the intramedullary blood vessel had bridged the length of the graft: 4 of 4
Grafted femurs; 6 weeks
  Grafted femur mode of failure after torsion testing: Early Union (number of femurs): 3
  Grafted femur mode of failure after torsion testing: Mature Union (number of femurs): 3
  Grafted femur mode of failure after torsion testing: Pre-Union (number of femurs): 8
  rate of twist at TUlt as fraction of control grafted specimens: ⅓
Grafted femurs; [6]
  TR: 1175 N*mm^2/Rad
  Tult: 13.2 N*mm
  Twist at Tult: 0.020 Rad/mm
  Tyield: 10.5 N*mm
  Work to TUlt: 0.167 Nmm*Rad/mm
  Work to TYield: 0.0687 Nmm*Rad/mm
Grafted femurs; saline only 3, not statistically significant
  specimens that failed in a manner not simply graft-pullout from the host: Six
Grafted femurs; vs saline grafted femurs, 6 weeks
  Yield Torque, greater by: 72%
Grafted femurs; vs saline grafted femurs, 6 weeks, not significant
  Ultimate Torque, greater by: 23%
Grafted femurs; vs saline, 6 weeks
  torsional rigidity of grafted femurs: doubled
[2]
  contralateral intact femur's diaphyseal BMCPTH:BMCSaline: 1.17
[2]; [7]
  A-P Periosteal Diameter: 1.30 mm
  Cortical Bone Density: 1179 mgHA/cc
  Cortical Thickness: 0.199 mm
  Cross-Sectional Area: 0.82 mm²
  M-L Periosteal Diameter: 1.85 mm
  Polar Moment of Inertia: 0.36 mm^4
[3]
  increase in mineralized Union Area: 2.8 fold
[4]; 6 weeks of PTH treatment
  torsional mechanics of intact contralateral femurs: did not show a significant increase in torsional mechanics
[4]; PTH Contra, 6 weeks, mean
  TR: 1284 N*mm^2/Rad
  Tult: 22.6 N*mm
  Twist at Tult: 0.029 Rad/mm
  Tyield: 15.1 N*mm
  Work to TUlt: 0.401 Nmm*Rad/mm
  Work to TYield: 0.151 Nmm*Rad/mm
[5]; 9 weeks post-reconstruction, both scaffolds, daily (5 days/week) PTH, none in controls
  animals that developed a mineralized callus bridging the defect (union): 30%
[5]; 9 weeks, torsion at 1°/sec
  torsion behavior of bridged grafts: prototypical brittle bone torsion behavior
[5]; 9 weeks, vs control
  biomechanical properties of scaffold-grafted femurs (maximum torque, torsional rigidity, ultimate twist): improved the biomechanical properties of the scaffold-grafted femurs especially in femurs with bridging unions
[5]; PLA and PLA/βTCP scaffolds, 6 and 9 weeks post-reconstruction, vs control
  volume of the mineralized callus: increased the volume of the mineralized callus regardless of the scaffold type

From patent US20090227503A1, “PARATHYROID HORMONE TREATMENT FOR ENHANCED ALLOGRAFT AND TISSUE-ENGINEERED RECONSTRUCTION OF BONE DEFECTS” (UNIVERSITY OF ROCHESTER, priority 2008, published 2009)
